# Test results from patent publication US9353157B2 (priority 2007, dated 2016).
# “And” between values parts separate entries of the source, which are not always exact repeats. Equal values may be shown once. Ends that are not written are not given here.
# Columns and labels:
# influenza A virus = experiment: Plaque reduction / virus infectivity assays, influenza A virus (strain not specified); format: cell-based; conditions: for IC50: normal-sized plaques, read-out: potency in virus infectivity assays, normal-sized plaques
# Protocol: (§1) Using an immunoplaque assay with AVICEL® microcrystalline cellulose as the overlay (Matrosovich et al., 2006), plaques are detected by fixing the monolayers and staining with a specific antibody to the influenza virus nucleoprotein. In the peptide inhibition assay, peptide is preincubated with about 100 plaque forming units (pfu) of the virus for approximately 1 hour, then used to infect the monolayers. Two conditions were used for the incubation: (1) standard condition in which the peptide is included in the overlay at the same concentration that was used in the preincubation step, or (2) a condition in which the peptide is not included in the overlay.
# (§2) F3 was evaluated for inhibition of multiple subtypes of influenza A viruses utilizing Madin-Darby Canine Kidney (“MDCK”) cell plaque assays performed using the A/WSN/33 (H1N1) and A/Udorn/72 (H3N2) subtypes of influenza A virus. Dilutions of 50 μM to 2.5 μM of F3 and the randomly scrambled control peptide (SEQ ID NO: 14) were used to evaluate the effects of these peptides on viral infectivity. Six dilutions of F3 and of the control peptide were tested against the H1N1 viral subtype; and another six dilutions of each peptide were tested against the H3N2 viral subtype.
# [1] = test system: influenza A/PR/8/34 (H1N1); experiment: Inhibition of influenza virus-induced hemagglutination, A/PR/8/34; format: cell-based; conditions: for concentration inhibiting influenza virus-induced hemagglutination: optimal numbers of red blood cells and concentrations of virus
# Protocol: Studies have been conducted with various influenza strains to better understand the mechanism of action of the peptides of the invention, e.g., to determine which step in the viral replication cycle is inhibited by F3, F1, and related influenza virus inhibitory peptides. At optimal numbers of red blood cells and concentrations of influenza A/PR/8/34 (H1N1), both F3 and F1 inhibited influenza virus-induced hemagglutination at about 10 μM concentrations.
# [2] = test system: H3N2 influenza A/Cal/07/04; set-up: species or system ferret; conditions: in vivo; for ferrets with significant/severe respiratory distress (high fever, sneezing): 0.3 mg/kg
# influenza A/Cal/07/04 = test system: influenza A/Cal/07/04; set-up: species or system ferret; conditions: in vivo; for ferrets with significant respiratory distress, high fever, sneezing / signs of influenza: 0.3 mg/kg
# H1N1 influenza A virus = experiment: MDCK cell immunoplaque / plaque reduction assay, H1N1; format: cell-based; conditions: H1 influenza A virus subtype
# Protocol: as §1, §2
# (§3) At low nM concentrations (<10 nM) for condition (1), or low μM ([…]) for condition (2), the presence of “mini-plaques” were apparent.
# H3N2 influenza A virus = experiment: MDCK cell immunoplaque / plaque reduction assay, H3N2; format: cell-based; conditions: H3 influenza A virus subtype
# Protocol: as §1, §2, §3
# [3] = test system: recombinant H5N1 influenza virus
# [4] = test system: influenza B (B/Shanghai/361/2002)
# [5] = test system: influenza B (B/Shanghai/10/2003)
substance,measurement,setting,value
"SWLVNKIYLTDDEVEL (Scrambled version of residues 84-99 of influenza A/H3 HA2) [scrambled control peptide, reference compound]",anti-viral properties,influenza A virus,no discernable anti-viral properties
same,inhibition of influenza A virus plaque formation,influenza A virus; under any condition (peptide in overlay or not),did not inhibit
same,inhibition of hemagglutination,[1]; at any concentration,did not inhibit
same,ferrets displaying significant nasal discharge,[2],100%
same,ferrets presenting with lethargy,[2],50%
same,"ferrets with significant/severe respiratory distress (high fever, sneezing)",[2],all
same,lung presentation (gross pathology),influenza A/Cal/07/04,evidence of inflammation
same,tissue pathology (histopathology),influenza A/Cal/07/04,"infiltrations, bronchial inflammation, with bronchial exudates"
same,"ferrets with significant respiratory distress, high fever, sneezing / signs of influenza",influenza A/Cal/07/04,all 12
VDDGFLDIWTYNAELLVLL [F1],antiviral activity in plaque assays,H1N1 influenza A virus,potent (picomolar)
same,antiviral activity in plaque assays,H3N2 influenza A virus,potent (picomolar)
same,IC50,influenza A virus,~0.2 nM
same,concentration inhibiting influenza virus-induced hemagglutination,[1],about 10 μM
VEDTKIDLWSYNAELL-NH2 [F3],anti-viral properties,influenza A virus,potent anti-viral properties
same,inhibition in plaque reduction assays,influenza A virus,picomolar inhibition
same,concentration at which mini-plaques were apparent,influenza A virus; condition (1): peptide included in the overlay,< 10 nM
same,IC50,influenza A virus,~0.2 nM
same,concentration inhibiting influenza virus-induced hemagglutination,[1],about 10 μM
same,clinical signs of influenza,[2],no clinical signs of influenza
same,ferrets with very mild respiratory signs with slight fever,[2],2/5 and 1/6
same,"ferrets with significant/severe respiratory distress (high fever, sneezing)",[2],none
same,animals that developed mild signs of influenza,influenza A/Cal/07/04,two
same,lung presentation (gross pathology),influenza A/Cal/07/04,normal lung presentations
same,"pathological responses (respiratory distress, nasal discharge, activity), FIG. 6",influenza A/Cal/07/04,significantly reduced pathological responses
same,reduction of peak titers of influenza virus in nasal washes,influenza A/Cal/07/04,greater than 2.0 log10
same,reduction of peak titers of influenza virus in the lungs,influenza A/Cal/07/04,greater than 6.0 log10
same,spread of the virus to the lower respiratory tract and to other organs,influenza A/Cal/07/04,effectively blocked
same,tissue pathology (histopathology),influenza A/Cal/07/04,markedly reduced pathology
same,"ferrets with significant respiratory distress, high fever, sneezing / signs of influenza",influenza A/Cal/07/04,none
same,IC50,[3],< 5 nM
same,IC50,[4],< 5 nM
same,IC50,[5],< 5 nM
